From US4006243A, “Amino-, mercapto- and -oxy-substituted-phenyl and -phenalkyl imidazoles” (Schering Aktiengesellschaft, priority 1974, dated 1977)

Tests used:
Assay type in all cases: cell-based
[1] = test system: Candida albicans; assay: MIC by the tube test against Candida albicans (Table I)
Text: (§1) Table I illustrates the high activity of the compounds of this invention, using as examples the compounds numbered 5-25, which are compared to the known compounds 1-4, viz., the ethyl ester of 1-(1,2,3,4-tetrahydro-1-naphthyl)-imidazole-5-carboxylic acid (Etonam) and the commercially available 2-dimethylamino-6-(β-diethylaminoethoxy)-benzothiazole, dihydrochloride (Dimazol dihydrochloride), as well as N-(2-hydroxybenzyl)-imidazole and N-(4-hydroxybenzyl)-imidazole (Bull. Soc. Chim. France 1973, 1179). The MIC values were determined by the tube test.

[2] = test system: Trichophyton rubrum; assay: MIC by the tube test against Trichophyton rubrum (Table I)
Text: as §1

[3] = test system: Trichophyton mentagrophytes; assay: MIC by the tube test against Trichophyton mentagrophytes (Table I)
Text: as §1

In the case of CCOC(=O)c1cncn1C1CCCc2ccccc21 (stereo not drawn) [Compound 1, 1-(1,2,3,4-Tetrahydro-1-naphthyl)-imidazole-5-carboxylic Acid Ethyl Ester], the “Minimum Inhibitory Concentration MIC against Candida albicans” value [1] is reported as “inactive”.

In the case of Oc1ccc(Cn2ccnc2)cc1 [Compound 4, N-(4-Hydroxybenzyl)-imidazole], the “Minimum Inhibitory Concentration MIC against Trichophyton rubrum” value [2] is reported as “inactive”, the “Minimum Inhibitory Concentration MIC against Trichophyton mentagrophytes” value [3] is reported as “inactive” and the “Minimum Inhibitory Concentration MIC against Candida albicans” value [1] is reported as “inactive”.

With Oc1ccccc1Cn1ccnc1 [Compound 3, N-(2-Hydroxybenzyl)-imidazole] the “Minimum Inhibitory Concentration MIC against Trichophyton mentagrophytes” value [3] was “inactive” and the “Minimum Inhibitory Concentration MIC against Candida albicans” value [1] was “inactive”.

For CCN(CC)CCOc1ccc2nc(N(C)C)sc2c1.Cl.Cl [Compound 2, 2-Dimethylamino-6-(β-diethylaminoethoxy)-benzothiazole, dihydrochloride], the “Minimum Inhibitory Concentration MIC against Trichophyton rubrum” value [2] was “inactive”, the “Minimum Inhibitory Concentration MIC against Trichophyton mentagrophytes” value [3] was “inactive” and the “Minimum Inhibitory Concentration MIC against Candida albicans” value [1] was “inactive”.
